{
  "source": "patent US20070032456A1",
  "about": "“Modulation of cell death” (priority 2003, published 2007)",
  "key": {"IL-6": {"tested_on": "IL-6", "test": "Level of expression of IL-6 in H9C2 cells treated with PLP under H2O2 oxidative stress", "assay_type": "cell-based, rat", "method": "Subcultured H9C2 cells (rat myocardium) (ATCC No. CRL-1446, from the American Type Culture Collection in Manassas, Va.) were plated into six well plates at a concentration of about 10^6 cells per well and allowed to grow overnight. The wells were then treated with concentrations of pyridoxal-5′-phosphate at concentrations of about 0, 50, 100, 250, 500, and 1000 nM in the medium. The cells were incubated for about 40 minutes.\nAn oxidative stressor, 1 mM H2O2 (Sigma, St. Louis, Mo.), was then added to each well. Supernantant samples were collected from the wells before addition of the 1 mM H2O2, and after 2, 4, 6, and 12 hours of exposure. The supernatant samples were stored at −20° C. until analyzed. The levels of IL-6 were then analyzed in each of the samples using test kits from Biosource Intl. (Camarillo, Calif.)."}, "activated p38": {"tested_on": "activated p38", "test": "Level of activated p38 in cells treated with PLP", "assay_type": "cell-based, rat", "conditions": "data not shown"}, "[1]": {"conditions": "in water, alcohol, and ether; cited from earlier work"}},
  "data": [
    {"molecule": "Cc1ncc(COP(=O)(O)O)c(C=O)c1O", "note": "[pyridoxal-5′-phosphate, 3-hydroxy-2-methyl-5-[(phosphonooxy)methyl]-4-pyridinecarboxaldehyde]", "values": [
      {"measurement": "levels of IL-6 expression", "setting": "IL-6; H9C2 cells (rat myocardium) pretreated about 40 minutes with 100 nM or more, then 1 mM H2O2, FIG. 1", "value": "decreased levels of IL-6 expression"},
      {"measurement": "duration of the decrease of IL-6 levels", "setting": "IL-6; H9C2 cells, 100 nM, after application of oxidative stress (1 mM H2O2), FIG. 2", "value": "at least 12 hours"},
      {"measurement": "level of activated p38", "setting": "activated p38", "value": "did not effect the level of activated p38"},
      {"measurement": "solubility", "setting": "[1]", "value": "essentially insoluble"}
    ]}
  ]
}
